Experimental data published in US20240368135A1 (VERTEX PHARMACEUTICALS INCORPORATED, priority 2021, published 2024).
pIC50: −log10 of the molar value.

Target: human NaV 1.8 (Homo sapiens, UniProt Q9Y5Y9)
Experiment: E-VIPR assay detecting and measuring NaV inhibition properties
Type: cell-based
Settings: HEK cells expressing truncated human NaV 1.8; no human serum; read-out: IC50 in the E-VIPR Assay
Summary of the method: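 Membrane potential was followed by coumarin/oxonol FRET during electrical field stimulation of matrigel-seeded HEK cells carrying truncated human NaV1.8 plus KIR2.1. Dosing used 11 points, 3-fold steps, top 300 nM final, 0.625% DMSO, with or without 25% human serum.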

human NaV 1.8, sequence (Q9Y5Y9 126-399 limits assumed): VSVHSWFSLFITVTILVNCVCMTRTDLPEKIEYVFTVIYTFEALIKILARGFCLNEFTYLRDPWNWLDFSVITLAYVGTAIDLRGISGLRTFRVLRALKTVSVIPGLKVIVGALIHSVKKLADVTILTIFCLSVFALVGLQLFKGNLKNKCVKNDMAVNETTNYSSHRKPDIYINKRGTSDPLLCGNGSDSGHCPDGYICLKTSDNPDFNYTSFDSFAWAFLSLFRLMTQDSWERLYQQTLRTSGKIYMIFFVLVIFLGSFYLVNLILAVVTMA
human NaV 1.8, sequence (Q9Y5Y9 660-890 limits assumed): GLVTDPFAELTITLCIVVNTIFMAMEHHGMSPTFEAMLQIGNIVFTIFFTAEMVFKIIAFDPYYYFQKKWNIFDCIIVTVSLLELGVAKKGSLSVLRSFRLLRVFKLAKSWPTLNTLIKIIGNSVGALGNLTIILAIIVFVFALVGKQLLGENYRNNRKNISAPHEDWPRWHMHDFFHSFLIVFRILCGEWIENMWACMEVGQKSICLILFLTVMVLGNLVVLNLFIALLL
human NaV 1.8, sequence (Q9Y5Y9 1148-1722 limits assumed): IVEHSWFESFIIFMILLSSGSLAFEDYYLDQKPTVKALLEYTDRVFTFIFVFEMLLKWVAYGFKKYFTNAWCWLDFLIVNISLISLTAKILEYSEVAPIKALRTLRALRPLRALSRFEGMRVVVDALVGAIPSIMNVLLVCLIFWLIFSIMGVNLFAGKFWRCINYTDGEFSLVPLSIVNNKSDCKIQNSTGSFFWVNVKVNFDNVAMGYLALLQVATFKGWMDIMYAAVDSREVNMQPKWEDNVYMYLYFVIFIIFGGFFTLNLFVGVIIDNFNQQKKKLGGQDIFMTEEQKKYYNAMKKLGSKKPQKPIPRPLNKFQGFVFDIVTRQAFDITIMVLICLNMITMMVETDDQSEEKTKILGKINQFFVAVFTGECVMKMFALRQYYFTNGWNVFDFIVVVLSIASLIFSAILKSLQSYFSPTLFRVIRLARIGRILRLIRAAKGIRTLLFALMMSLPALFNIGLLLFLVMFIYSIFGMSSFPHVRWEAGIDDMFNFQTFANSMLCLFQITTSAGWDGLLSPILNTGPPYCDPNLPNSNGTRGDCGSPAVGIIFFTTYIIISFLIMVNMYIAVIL

| SMILES | pIC50 |
| --- | --- |
| COCCOc1c([C@H]2[C@H](C(=O)Nc3ccnc(C(O)CO)c3)O[C@@](C)(C(F)(F)F)[C@H]2C)ccc(F)c1F (stereo partly drawn) [Compound 647, (2R,3S,4S,5R)-3-[3,4-difluoro-2-(2-methoxyethoxy)phenyl]-N-[2-(1,2-dihydroxyethyl)-4-pyridyl]-4,5-dimethyl-5-(trifluoromethyl)tetrahydrofuran-2-carboxamide] | > 8.00 |
| COCCOc1c([C@H]2[C@H](C(=O)Nc3cnn(C(C)(C)CO)c3)O[C@@](C)(C(F)(F)F)[C@H]2C)ccc(F)c1F [Compound 582, (2R,3S,4S,5R)-3-(3,4-difluoro-2-(2-methoxyethoxy)phenyl)-N-(1-(1-hydroxy-2-methylpropan-2-yl)-1H-pyrazol-4-yl)-4,5-dimethyl-5-(trifluoromethyl)tetrahydrofuran-2-carboxamide] | 6.00 to 7.00 |
| CCOc1c([C@H]2[C@H](C(=O)Nc3ccnc(S(C)(=O)=O)c3)O[C@@](C)(C(F)(F)F)[C@H]2C)ccc(F)c1F (stereo in doubt) [Compound 108, rel-(2R,3S,4S,5R)-3-(2-ethoxy-3,4-difluorophenyl)-4,5-dimethyl-N-(2-(methylsulfonyl)pyridin-4-yl)-5-(trifluoromethyl)tetrahydrofuran-2-carboxamide] | > 8.00 |
| COc1c([C@H]2[C@H](C(=O)NC3CCCN(C(C)=O)C3)O[C@@](C)(C(F)(F)F)[C@H]2C)ccc(F)c1F (stereo partly drawn) [Compound 274, (2R,3S,4S,5R)-N-(1-acetylpiperidin-3-yl)-3-(3,4-difluoro-2-methoxyphenyl)-4,5-dimethyl-5-(trifluoromethyl)tetrahydrofuran-2-carboxamide] | ≤ 6.00 |
| COc1c([C@H]2[C@H](C(=O)Nc3c[nH]nn3)O[C@@](C)(C(F)(F)F)[C@H]2C)ccc(F)c1F [Compound 372, (2R,3S,4S,5R)-3-(3,4-difluoro-2-methoxyphenyl)-4,5-dimethyl-N-(1H-1,2,3-triazol-4-yl)-5-(trifluoromethyl)tetrahydrofuran-2-carboxamide] | 7.00 to 8.00 |
| C[C@H]1[C@@H](c2ccc(F)c(F)c2OC(F)F)[C@H](C(=O)Nc2ccnc(S(C)(=O)=O)c2)O[C@@]1(C)C(F)(F)F (single isomer, unassigned) [Compound 85] | > 8.00 |
| COc1c([C@H]2[C@H](C(=O)NC3CCN(C(C)=O)C3)O[C@@](C)(C(F)(F)F)[C@H]2C)ccc(F)c1F (stereo partly drawn) [Compound 298, (2R,3S,4S,5R)-N-(1-acetylpyrrolidin-3-yl)-3-(3,4-difluoro-2-methoxyphenyl)-4,5-dimethyl-5-(trifluoromethyl)tetrahydrofuran-2-carboxamide] | ≤ 6.00 |
| COc1c([C@H]2[C@H](C(=O)NCC(C)(C)C(N)=O)O[C@@](C)(C(F)(F)F)[C@H]2C)ccc(F)c1F [Compound 282, (2R,3S,4S,5R)-N-(3-amino-2,2-dimethyl-3-oxopropyl)-3-(3,4-difluoro-2-methoxyphenyl)-4,5-dimethyl-5-(trifluoromethyl)tetrahydrofuran-2-carboxamide] | ≤ 6.00 |
| COc1c([C@H]2[C@H](C(=O)Nc3ccnc(N4C(=O)CNC[C@H]4C)c3)O[C@@](C)(C(F)(F)F)[C@H]2C)ccc(F)c1F [Compound 477, (2R,3S,4S,5R)-3-(3,4-difluoro-2-methoxyphenyl)-4,5-dimethyl-N-(2-((R)-2-methyl-6-oxopiperazin-1-yl)pyridin-4-yl)-5-(trifluoromethyl)tetrahydrofuran-2-carboxamide] | 7.00 to 8.00 |
| COc1c([C@H]2[C@H](C(=O)NC(C)C(N)=O)O[C@@](C)(C(F)(F)F)[C@H]2C)ccc(F)c1F (stereo partly drawn) [Compound 271, (2R,3S,4S,5R)-N-(1-amino-1-oxopropan-2-yl)-3-(3,4-difluoro-2-methoxyphenyl)-4,5-dimethyl-5-(trifluoromethyl)tetrahydrofuran-2-carboxamide] | ≤ 6.00 |
